Numbered stars: 1 amine (or outer) side, 2 acyl side, 3 side chain; on linkers, the order of the positions; unused ones are H or OH. Peptide text beside a SMILES is read from it. * marks the point of attachment. C20 diacid = O=C(O)CCCCCCCCCCCCCCCCCCC(=O)*; γGlu = O=C(O)[C@H](CCC(=O)[*:2])N[*:1]; AEEA = NCCOCCOCC(=O)O
Legend:
[1] = molecular target: T1, Amylin receptor AMY3; CALCR/RAMP3 (Homo sapiens, UniProt O60896+P30988); assay: Agonist activity at human amylin receptor expressed in BHK570 cells co-expressing RAMP3 assessed as increase in intracellular cAMP concentration incubated for 3 hrs in absence of albumin by CRE luciferase reporter gene assay; type: functional, cell-based
T1 sequence (P30988 whole entry): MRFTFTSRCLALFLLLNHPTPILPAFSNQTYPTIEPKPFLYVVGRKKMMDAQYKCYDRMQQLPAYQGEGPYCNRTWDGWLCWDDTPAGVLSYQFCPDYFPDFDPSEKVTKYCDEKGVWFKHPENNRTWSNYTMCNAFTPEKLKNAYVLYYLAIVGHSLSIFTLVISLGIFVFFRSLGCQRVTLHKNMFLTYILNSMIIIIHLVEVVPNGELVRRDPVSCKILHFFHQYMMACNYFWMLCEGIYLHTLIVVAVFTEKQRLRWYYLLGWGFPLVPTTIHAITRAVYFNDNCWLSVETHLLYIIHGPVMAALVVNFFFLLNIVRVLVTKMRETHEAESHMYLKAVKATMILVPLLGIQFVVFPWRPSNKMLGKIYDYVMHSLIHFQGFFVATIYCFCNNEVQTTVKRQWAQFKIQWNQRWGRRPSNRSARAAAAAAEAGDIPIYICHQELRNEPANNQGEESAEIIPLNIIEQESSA
T1 sequence (O60896 whole entry): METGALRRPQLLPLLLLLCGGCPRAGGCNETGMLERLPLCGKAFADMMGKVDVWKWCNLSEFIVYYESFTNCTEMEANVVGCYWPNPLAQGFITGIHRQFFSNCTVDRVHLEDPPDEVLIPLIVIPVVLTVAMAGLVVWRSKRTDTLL

Calcitonin receptor [2] = molecular target: T2, Calcitonin receptor (Homo sapiens, UniProt P30988); assay: Agonist activity at human calcitonin receptor expressed in BHK570 cells assessed as increase in intracellular cAMP concentration incubated for 3 hrs in absence of albumin by CRE luciferase reporter gene assay; type: functional, cell-based
T2 sequence (P30988 whole entry): T1 sequence (P30988 whole entry)

[3] = molecular target: T1, Amylin receptor AMY3; CALCR/RAMP3; assay: Agonist activity at human amylin receptor expressed in BHK570 cells co-expressing RAMP3 assessed as increase in intracellular cAMP concentration incubated for 3 hrs in presence of 10% FBS by CRE luciferase reporter gene assay; type: functional, cell-based
Calcitonin receptor [4] = molecular target: T2, Calcitonin receptor; assay: Agonist activity at human calcitonin receptor expressed in BHK570 cells assessed as increase in intracellular cAMP concentration incubated for 3 hrs in presence of 10% FBS by CRE luciferase reporter gene assay; type: functional, cell-based
[5] = Stability in pH 7.5 buffer assessed as lag time for fibril formation at 1 uM by Thioflavin T based fluorescence assay; type: physicochemical; conditions: pH 7.5, 1 µM
[6] = Stability in pH 7.5 buffer assessed as compound recovery at 1 uM by Thioflavin T based fluorescence assay; type: physicochemical; conditions: read-out: Drug recovery
[7] = Solubility in 100 mM glycylglycine buffer at pH 3.0 incubated for 18 hrs by UPLC analysis; type: physicochemical
[8] = Solubility in 100 mM glycylglycine buffer at pH 4.0 incubated for 18 hrs by UPLC analysis; type: physicochemical
[9] = Solubility in 100 mM bistrispropane buffer at pH 6.0 incubated for 18 hrs by UPLC analysis; type: physicochemical
[10] = Solubility in 100 mM glycylglycine buffer at pH 5.0 incubated for 18 hrs by UPLC analysis; type: physicochemical
[11] = Solubility in 100 mM bistrispropane buffer at pH 6.5 incubated for 18 hrs by UPLC analysis; type: physicochemical
[12] = Solubility in 100 mM bistrispropane buffer at pH 7.0 incubated for 18 hrs by UPLC analysis; type: physicochemical
[13] = Solubility in 100 mM bistrispropane buffer at pH 7.5 incubated for 18 hrs by UPLC analysis; type: physicochemical
[14] = Solubility in 100 mM bistrispropane buffer at pH 8.0 incubated for 18 hrs by UPLC analysis; type: physicochemical
[15] = molecular target: T1, Amylin receptor AMY3; CALCR/RAMP3; assay: Displacement of [125I]-labeled rat amylin from human amylin receptor expressed in BHK570 cell membranes co-expressing RAMP3 incubated for 120 mins by scintillation proximity assay
Calcitonin receptor [16] = molecular target: T2, Calcitonin receptor; assay: Displacement of [125I]-labeled human calcitonin from human calcitonin receptor expressed in BHK tkts13 cell membranes incubated for 1 hr by scintillation proximity assay
[17] = molecular target: T1, Amylin receptor AMY3; CALCR/RAMP3; assay: Displacement of [125I]-labeled rat amylin from human amylin receptor expressed in BHK tkts13 whole cells co-expressing RAMP3 incubated for 60 mins by scintillation proximity assay; type: cell-based
Calcitonin receptor [18] = molecular target: T2, Calcitonin receptor; assay: Displacement of [125I]-labeled human calcitonin from human calcitonin receptor expressed in BHK tkts13 whole cells incubated for 60 mins by scintillation proximity assay; type: cell-based
Rattus norvegicus [19] = assay: Reduction in food intake in Sprague-Dawley rat at 3 nmol/kg measured 0 to 24 hrs post dose relative to control; type: functional; set-up: scale not given: the % may be the effect or the level left
Rattus norvegicus [20] = assay: Reduction in food intake in Sprague-Dawley rat at 3 nmol/kg measured 24 to 48 hrs post dose relative to control; type: functional; set-up: scale not given: the % may be the effect or the level left
[21] = molecular target: T3, Amylin receptor AMY3; CALCR/RAMP3 (Rattus norvegicus, UniProt P32214+Q9JJ73); assay: Displacement of [125I]-labeled rat amylin from rat amylin receptor expressed in BHK tkts13 cell membranes co-expressing RAMP3 incubated for 120 mins by scintillation proximity assay
T3 sequence (P32214 whole entry): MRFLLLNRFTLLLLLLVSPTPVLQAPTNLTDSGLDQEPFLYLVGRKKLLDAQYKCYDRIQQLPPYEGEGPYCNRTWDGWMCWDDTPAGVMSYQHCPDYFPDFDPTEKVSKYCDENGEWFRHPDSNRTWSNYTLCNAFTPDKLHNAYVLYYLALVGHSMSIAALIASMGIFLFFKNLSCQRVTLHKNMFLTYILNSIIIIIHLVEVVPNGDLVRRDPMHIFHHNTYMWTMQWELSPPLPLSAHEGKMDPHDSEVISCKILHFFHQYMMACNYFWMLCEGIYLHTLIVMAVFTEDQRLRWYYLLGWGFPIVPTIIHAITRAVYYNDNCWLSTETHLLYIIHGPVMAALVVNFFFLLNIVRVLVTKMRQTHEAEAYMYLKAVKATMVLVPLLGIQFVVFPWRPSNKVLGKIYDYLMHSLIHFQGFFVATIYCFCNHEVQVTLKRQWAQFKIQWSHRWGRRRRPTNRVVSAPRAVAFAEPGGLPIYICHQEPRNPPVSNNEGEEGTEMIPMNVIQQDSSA
T3 sequence (Q9JJ73 whole entry): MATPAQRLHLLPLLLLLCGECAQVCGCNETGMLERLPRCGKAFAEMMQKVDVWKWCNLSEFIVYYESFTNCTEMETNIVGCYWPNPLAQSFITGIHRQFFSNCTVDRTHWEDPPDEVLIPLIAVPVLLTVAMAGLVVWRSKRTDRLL

EC50 (Calcitonin receptor [2]) [pM] | EC50 [3] [pM] | Time [5] [h] | remaining at 1 µM [6] [%] | solubility at 18 h [7] [µM] | solubility at 18 h [8] [µM] | solubility at 18 h [9] [µM] | solubility at 18 h [10] [µM] | solubility at 18 h [11] [µM] | solubility at 18 h [12] [µM] | solubility at 18 h [13] [µM] | solubility at 18 h [14] [µM] | IC50 (Calcitonin receptor [16]) [pM] | IC50 [17] [pM] | IC50 (Calcitonin receptor [18]) [pM] | Compound | also measured
11 | 68 | > 45 | 100 | ≥ 200 | ≥ 200 | ≥ 200 | ≥ 200 | ≥ 200 | ≥ 200 | ≥ 200 | ≥ 200 | 50 | 432 | 352 | CC(C)C[C@H](NC(=O)[C@H](C)NC(=O)[C@H](C)NC(=O)[C@@H](NC(=O)[C@H](CO)NC(=O)[C@H](CC(C)C)NC(=O)[C@H](CCC(=O)O)NC(=O)[C@H](CO)NC(=O)[C@H](C)NC(=O)COCCOCCNC(=O)COCCOCCNC(=O)COCCOCCNC(=O)CC[C@H](NC(=O)CCCCCCCCCCCCCCCCCCC(=O)O)C(=O)O)[C@@H](C)O)C(=O)NCC(=O)N[C@@H](CCCNC(=N)N)C(=O)N[C@@H](CC(C)C)C(=O)N[C@@H](CO)C(=O)N[C@@H](C)C(=O)N[C@@H](CCC(=O)O)C(=O)N[C@@H](CC(C)C)C(=O)N[C@@H](Cc1cnc[nH]1)C(=O)N[C@@H](CCC(=O)O)C(=O)N[C@@H](CC(C)C)C(=O)N[C@@H](C)C(=O)N[C@H](C(=O)N[C@@H](CC(C)C)C(=O)N1CCC[C@H]1C(=O)N[C@@H](CCCNC(=N)N)C(=O)N[C@H](C(=O)N[C@@H](CCC(=O)O)C(=O)N[C@H](C(=O)NCC(=O)N[C@@H](CO)C(=O)NCC(=O)N[C@@H](CO)C(=O)N1CCC[C@H]1C(N)=O)[C@@H](C)O)[C@@H](C)O)[C@@H](C)O ({C20 diacid-γGlu-AEEA-AEEA-AEEA}-ASELSTAALGRLSAELHELATLPRTETGSGSP-NH2) | EC50 [1]: 18 pM; EC50 (Calcitonin receptor [4]): 25 pM; IC50 [15]: 164 pM
23 | 67 | > 45 | 100 | ≥ 200 | ≥ 200 | ≥ 200 | ≥ 200 | ≥ 200 | ≥ 200 | ≥ 200 | ≥ 200 | 70 | 2610 | 2940 | CC(C)C[C@H](NC(=O)[C@H](C)NC(=O)[C@H](C)NC(=O)[C@@H](NC(=O)[C@H](CO)NC(=O)[C@H](CC(C)C)NC(=O)[C@H](CCC(=O)O)NC(=O)[C@H](CO)NC(=O)[C@H](C)NC(=O)CC[C@H](NC(=O)CCCCCCCCCCCCCCCCCCC(=O)O)C(=O)O)[C@@H](C)O)C(=O)NCC(=O)N[C@@H](CCCNC(=N)N)C(=O)N[C@@H](CC(C)C)C(=O)N[C@@H](CO)C(=O)N[C@@H](C)C(=O)N[C@@H](CCC(=O)O)C(=O)N[C@@H](CC(C)C)C(=O)N[C@@H](Cc1cnc[nH]1)C(=O)N[C@@H](CCC(=O)O)C(=O)N[C@@H](CC(C)C)C(=O)N[C@@H](C)C(=O)N[C@H](C(=O)N[C@@H](Cc1ccc(O)cc1)C(=O)N1CCC[C@H]1C(=O)N[C@@H](CCCNC(=N)N)C(=O)N[C@H](C(=O)N[C@@H](CCC(=O)O)C(=O)N[C@H](C(=O)NCC(=O)N[C@@H](CO)C(=O)NCC(=O)N[C@@H](CO)C(=O)N1CCC[C@H]1C(N)=O)[C@@H](C)O)[C@@H](C)O)[C@@H](C)O ({C20 diacid-γGlu}-ASELSTAALGRLSAELHELATYPRTETGSGSP-NH2) | Activity (Rattus norvegicus [19]): 45%; Activity (Rattus norvegicus [20]): 67%; IC50 [21]: 3990 pM
